The values that follow come from PubChem BioAssay (NCI).

Test systems include P388 leukemia; SN12K1 renal; LXFL 529 NSCLC; HOP-18 NSCLC; DLD-1 colon; P388/ADR leukemia; RXF-631 renal.
What all share (assay): NCI tumour cell line growth inhibition, 48 h

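Test compounds were applied to cells in 96-well plates for 48 hours at 5 doses. TGI denotes the concentration required for complete inhibition of growth.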 A value given as a limit tells only on which side of the number the result lay.

On to `NC1=NC(c2ccccc2)CC(c2cc(Cl)cc(Br)c2O)=N1` (configuration not stated), for which the TGI with P388 leukemia is greater than 20.7 µM; in the test with SN12K1 renal it was 28.3 µM; in the test with LXFL 529 NSCLC, 31.3 µM; in the test with HOP-18 NSCLC, 37.4 µM; with DLD-1 colon it was 25.8 µM; with P388/ADR leukemia, greater than 27.8 µM. In addition, in the test on RXF-631 renal, the TGI is 39.8 µM.
As for `O=C(c1cc2c(C(F)(F)F)onc2c2ccccc12)C(F)(F)F`, the TGI in the test on LXFL 529 NSCLC was greater than 47 µM; in the test on HOP-18 NSCLC, greater than 100 µM; with DLD-1 colon, greater than 100 µM; with RXF-631 renal, 80.1 µM.
With `CC(C)Cc1ccc(C(C)/C=C2\CCC(CN3CCCC3)C2=O)cc1` (configuration not stated), the TGI in the test on LXFL 529 NSCLC was found to be 4.77 µM; with HOP-18 NSCLC it was 33.4 µM; with DLD-1 colon, 6.67 µM; in the test with RXF-631 renal, 49.9 µM.
As to `O=C(O)CN(c1ccccc1)S(=O)(=O)c1ccc(Cl)cc1`, the TGI in the test on LXFL 529 NSCLC, in the test on HOP-18 NSCLC, with DLD-1 colon and in the test on RXF-631 renal was greater than 100 µM in each case.
As to `CC(C)c1cccc(C(C)C)c1N=C(N)C#N`, the TGI was greater than 100 µM with LXFL 529 NSCLC, greater than 100 µM with HOP-18 NSCLC, greater than 65.6 µM with DLD-1 colon and greater than 100 µM in the test with RXF-631 renal.
As for `CC(C(=O)c1ccccc1)C1(O)C(=O)Nc2ccccc21` (configuration not stated), the TGI in the test with HOP-18 NSCLC, in the test on DLD-1 colon and in the test on RXF-631 renal was greater than 100 µM each time.
As to `CC(=O)O[C@H]1CCC2[C@@H]3CCC4Nc5c(cnn5-c5ccccc5)C[C@]4(C)C3CC[C@@]21C` (some centres not stated), the TGI in the test with LXFL 529 NSCLC was 58.5 µM; with HOP-18 NSCLC it was 86.5 µM; with DLD-1 colon, greater than 100 µM; with RXF-631 renal, 42.2 µM.
As to `CC1=C(/C=C/C2=CC(=C\C(=O)O)/CC(C3=C(C)CCCC3(C)C)C2)C(C)(C)CCC1` (configuration not stated), the TGI was 26.8 µM in the test with LXFL 529 NSCLC, 27 µM in the test on HOP-18 NSCLC, 24.5 µM in the test on DLD-1 colon and 24.7 µM with RXF-631 renal.
As for `S=P(c1ccccc1)(c1ccccc1)C1(C2(P(=S)(c3ccccc3)c3ccccc3)CC2)CC1`, the TGI in the test with LXFL 529 NSCLC, in the test on DLD-1 colon and in the test with RXF-631 renal was greater than 100 µM in each case.
With `CC(=O)NC1C(OCc2ccccc2)OC(COC(=O)CCCCCNc2ccc([N+](=O)[O-])c3[nH]c4ccc(O)cc4c(=O)c23)C(O)C1OC(C)C(=O)N[C@@H](C)C(=O)N[C@H](CCC(=O)OCc1ccccc1)C(N)=O` (some centres not stated), the TGI turned out to be 3.85 µM in the test on LXFL 529 NSCLC, 10.6 µM in the test with HOP-18 NSCLC, 10 µM in the test on DLD-1 colon and 5.35 µM with RXF-631 renal.
As for `COc1cc2ccc(/C(C)=N/OC(C)=O)cc2cc1OC`, the TGI with LXFL 529 NSCLC, with HOP-18 NSCLC and in the test with RXF-631 renal was greater than 100 µM throughout.
Take `CCCC1C(=O)C(CC)Cc2c(OC)ccc(OC)c21` (configuration not stated): the TGI in the test on LXFL 529 NSCLC, in the test with DLD-1 colon and in the test on RXF-631 renal was greater than 100 µM in each case.
